Measurements: ChEMBL document CHEMBL1201862, “PubChem BioAssay data set” (2004)
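Protocol summary: plate cells (96-well), add compound at 5 concentrations, incubate 48 h, interpolate endpoints linearly. The concentration for 50% growth inhibition is given as GI50.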 Calls of active or inactive are those of the source. Rule as the data show it: active = GI50 up to about 1.1 µM and inactive = higher.

What was measured:
Experiment in all cases: inhibition of tumour cell growth, NCI panel, 48 h
SK-MEL-28 = test system: SK-MEL-28
SK-OV-3 = test system: SK-OV-3
SR = test system: SR
UACC-62 = test system: UACC-62
TK-10 = test system: TK-10
Hs-578T = test system: Hs-578T
MCF7 = test system: MCF7
U-251 = test system: U-251
BT-549 = test system: BT-549
UACC-257 = test system: UACC-257
SF-539 = test system: SF-539
SF-268 = test system: SF-268
LOX IMVI = test system: LOX IMVI
MDA-N = test system: MDA-N
IGROV-1 = test system: IGROV-1
HCC 2998 = test system: HCC 2998
ACHN = test system: ACHN
NCI/ADR-RES = test system: NCI/ADR-RES
CAKI-1 = test system: CAKI-1
SNB-75 = test system: SNB-75
SNB-19 = test system: SNB-19
HOP-92 = test system: HOP-92
HCT-15 = test system: HCT-15
RPMI-8226 = test system: RPMI-8226
COLO 205 = test system: COLO 205
M14 = test system: M14
HOP-62 = test system: HOP-62
SK-MEL-2 = test system: SK-MEL-2
NCI-H226 = test system: NCI-H226
EKVX = test system: EKVX
T47D = test system: T47D
MDA-MB-231 = test system: MDA-MB-231
SF-295 = test system: SF-295
OVCAR-8 = test system: OVCAR-8
MDA-MB-435 = test system: MDA-MB-435
786-0 = test system: 786-0
HT-29 = test system: HT-29
Malme-3M = test system: Malme-3M
NCI-H23 = test system: NCI-H23
DU-145 = test system: DU-145
PC-3 = test system: PC-3
SW-620 = test system: SW-620
CCRF-CEM = test system: CCRF-CEM
UO-31 = test system: UO-31
MOLT-4 = test system: MOLT-4
A498 = test system: A498
OVCAR-3 = test system: OVCAR-3
NCI-H522 = test system: NCI-H522
RXF 393 = test system: RXF 393
OVCAR-5 = test system: OVCAR-5
HL-60 = test system: HL-60
OVCAR-4 = test system: OVCAR-4
A549 = test system: A549
HCT-116 = test system: HCT-116
SN12C = test system: SN12C
SK-MEL-5 = test system: SK-MEL-5
KM12 = test system: KM12

Measured: GI50

O=C1C[C@@H](c2ccccc2)NCCCCN(O)CCCN1
inactive: SK-MEL-28 > 100 µM | SK-OV-3 > 100 µM | SR > 10 µM | UACC-62 > 100 µM | TK-10 > 100 µM | Hs-578T > 100 µM | MCF7 > 100 µM | U-251 > 100 µM | BT-549 > 100 µM | UACC-257 > 100 µM | SF-539 > 100 µM | SF-268 > 100 µM | LOX IMVI > 100 µM | MDA-N > 100 µM | IGROV-1 > 100 µM | HCC 2998 > 100 µM | ACHN > 100 µM | NCI/ADR-RES > 100 µM | CAKI-1 > 100 µM | SNB-75 > 100 µM | SNB-19 28.4 µM | HOP-92 > 100 µM | RPMI-8226 22.3 µM | COLO 205 > 100 µM | M14 > 100 µM | HOP-62 > 100 µM | SK-MEL-2 > 100 µM | NCI-H226 > 100 µM | EKVX > 100 µM | T47D > 100 µM | MDA-MB-231 > 100 µM | SF-295 > 100 µM | OVCAR-8 > 100 µM | MDA-MB-435 > 100 µM | 786-0 > 100 µM | HT-29 > 100 µM | Malme-3M > 100 µM | NCI-H23 > 100 µM | DU-145 > 100 µM | PC-3 > 100 µM | SW-620 > 100 µM | CCRF-CEM > 100 µM | UO-31 > 100 µM | MOLT-4 > 100 µM | A498 > 100 µM | OVCAR-3 > 100 µM | NCI-H522 > 100 µM | RXF 393 > 100 µM | OVCAR-5 > 100 µM | HL-60 > 100 µM | OVCAR-4 88.5 µM | A549 > 100 µM | HCT-116 > 100 µM | SN12C > 100 µM | SK-MEL-5 > 100 µM | KM12 > 100 µM
> 100 µM: HCT-15
